This test has as its target T1, SOS1 (Homo sapiens, UniProt Q07889).
T1 sequence (Q07889 1-1333): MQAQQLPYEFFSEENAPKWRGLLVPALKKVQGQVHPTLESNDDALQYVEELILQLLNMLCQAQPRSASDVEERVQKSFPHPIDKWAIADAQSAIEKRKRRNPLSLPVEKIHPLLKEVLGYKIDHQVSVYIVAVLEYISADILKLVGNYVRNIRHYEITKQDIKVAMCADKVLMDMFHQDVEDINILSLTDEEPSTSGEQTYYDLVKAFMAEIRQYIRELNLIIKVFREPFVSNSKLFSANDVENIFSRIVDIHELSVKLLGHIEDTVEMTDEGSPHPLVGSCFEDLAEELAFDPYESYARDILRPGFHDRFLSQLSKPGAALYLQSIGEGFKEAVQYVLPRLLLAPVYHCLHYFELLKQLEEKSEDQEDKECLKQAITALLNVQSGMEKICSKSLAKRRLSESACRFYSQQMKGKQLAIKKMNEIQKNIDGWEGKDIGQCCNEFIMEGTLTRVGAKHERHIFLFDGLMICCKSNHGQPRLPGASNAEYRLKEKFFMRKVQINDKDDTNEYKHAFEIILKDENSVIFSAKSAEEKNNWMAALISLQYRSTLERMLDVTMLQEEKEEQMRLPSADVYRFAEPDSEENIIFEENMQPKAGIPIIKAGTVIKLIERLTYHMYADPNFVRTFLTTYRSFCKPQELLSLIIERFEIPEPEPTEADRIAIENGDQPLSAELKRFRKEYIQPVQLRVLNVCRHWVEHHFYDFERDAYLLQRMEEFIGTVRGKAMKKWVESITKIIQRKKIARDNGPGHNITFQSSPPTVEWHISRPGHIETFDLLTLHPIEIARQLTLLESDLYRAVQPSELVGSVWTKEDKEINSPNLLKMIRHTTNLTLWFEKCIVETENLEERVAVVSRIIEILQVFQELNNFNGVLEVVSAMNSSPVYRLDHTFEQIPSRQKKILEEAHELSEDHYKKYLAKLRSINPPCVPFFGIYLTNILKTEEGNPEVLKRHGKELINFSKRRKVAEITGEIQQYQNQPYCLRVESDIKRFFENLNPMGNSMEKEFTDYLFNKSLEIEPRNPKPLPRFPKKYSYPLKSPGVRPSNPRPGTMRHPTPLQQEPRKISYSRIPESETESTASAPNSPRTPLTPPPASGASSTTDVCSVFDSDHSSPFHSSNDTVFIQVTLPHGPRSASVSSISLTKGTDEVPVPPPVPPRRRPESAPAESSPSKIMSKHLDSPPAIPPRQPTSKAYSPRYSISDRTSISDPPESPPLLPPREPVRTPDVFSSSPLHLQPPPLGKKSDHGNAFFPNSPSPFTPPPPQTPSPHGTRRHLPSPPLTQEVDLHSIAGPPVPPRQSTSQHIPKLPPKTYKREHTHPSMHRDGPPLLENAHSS
As to the kind of experiment: biochemical.

The structures appear in SMILES notation.

The compound `C[C@@H](Nc1nnc(-n2ccnc2)c2cc(=O)n(C3CC3)cc12)c1cccc(C(F)F)c1F` [Example 31, (R)-6-cyclopropyl-4-((1-(3-(difluoromethyl)-2-fluorophenyl)ethyl)amino)-1-(1H-imidazol-1-yl)pyrido[3,4-d]pyridazin-7(6H)-one] returned a half-inhibitory concentration (IC50) of 19.5 nM.

On to `C[C@@H](Nc1nnc(-n2nccn2)c2cc(=O)n(C3CC3)cc12)c1cccc(C(F)F)c1F` [Example 32, (R)-6-cyclopropyl-4-((1-(3-(difluoromethyl)-2-fluorophenyl)ethyl)amino)-1-(2H-1,2,3-triazol-2-yl)pyrido[3,4-d]pyridazin-7(6H)-one], for which the 50% inhibitory concentration (IC50) was found to be 25.5 nM. Consider `C[C@@H](Nc1nnc(-n2cccn2)c2cc(=O)n(C3(C)CC3)cc12)c1cccc(C(F)F)c1F` [Example 33, (R)-4-((1-(3-(difluoromethyl)-2-fluorophenyl)ethyl)amino)-6-(1-methylcyclopropyl)-1-(1H-pyrazol-1-yl)pyrido[3,4-d]pyridazin-7(6H)-one], for which the IC50 was 22.5 nM. `C[C@@H](Nc1nnc(-n2ccnc2)c2cc(=O)n(C3(C)CC3)cc12)c1cccc(C(F)F)c1F` [Example 34, (R)-4-((1-(3-(difluoromethyl)-2-fluorophenyl)ethyl)amino)-1-(1H-imidazol-1-yl)-6-(1-methylcyclopropyl) pyrido[3,4-d]pyridazin-7(6H)-one] came in with an IC50 of 14.4 nM. `Cc1c(C#N)cccc1[C@@H](C)Nc1nnc(N2CC3CC3C2)c2cc(=O)n(C3CC3)cc12` (stereo partly drawn) [Example 35, 3-((1R)-1-((1-(3-azabicyclo[3.1.0]hexan-3-yl)-6-cyclopropyl-7-oxo-6,7-dihydropyrido[3,4-d]pyridazin-4-yl)amino)ethyl)-2-methylbenzonitrile] came in with a concentration for half-maximal inhibition (IC50) of 14.8 nM. `Cc1c(C#N)cccc1[C@@H](C)Nc1nnc(N2CCC2)c2cc(=O)n(C3CC3)cc12` [Example 36, (R)-3-(1-((1-(azetidin-1-yl)-6-cyclopropyl-7-oxo-6,7-dihydropyrido[3,4-d]pyridazin-4-yl)amino)ethyl)-2-methylbenzonitrile] displayed an IC50 of 10.7 nM. Take `Cc1c(C#N)cccc1[C@@H](C)Nc1nnc(N2CCCC2)c2cc(=O)n(C3CC3)cc12` [Example 37, (R)-3-(1-((6-cyclopropyl-7-oxo-1-(pyrrolidin-1-yl)-6,7-dihydropyrido[3,4-d]pyridazin-4-yl)amino)ethyl)-2-methylbenzonitrile]: half-maximal inhibition (IC50) was put at 9.2 nM. `Cc1c(C#N)cccc1[C@@H](C)Nc1nnc(N(C)C)c2cc(=O)n(C3CC3)cc12` [Example 39, (R)-3-(1-((6-cyclopropyl-1-(dimethylamino)-7-oxo-6,7-dihydropyrido[3,4-d]pyridazin-4-yl)amino)ethyl)-2-methylbenzonitrile]: the IC50 came to 23.8 nM. Next, `CCN(CC)c1nnc(N[C@H](C)c2cccc(C#N)c2C)c2cn(C3CC3)c(=O)cc12` [Example 40, (R)-3-(1-((6-cyclopropyl-1-(diethylamino)-7-oxo-6,7-dihydropyrido[3,4-d]pyridazin-4-yl)amino)ethyl)-2-methylbenzonitrile]: 32.5 nM; `Cc1c(C#N)cccc1[C@@H](C)Nc1nnc(N2CC(F)(F)C2)c2cc(=O)n(C3CC3)cc12` [Example 41, (R)-3-(1-((6-cyclopropyl-1-(3,3-difluoroazetidin-1-yl)-7-oxo-6,7-dihydropyrido[3,4-d]pyridazin-4-yl)amino)ethyl)-2-methylbenzonitrile]: 57.9 nM.

As for `Cc1c(C#N)cccc1[C@@H](C)Nc1nnc(N2CCC(F)(F)C2)c2cc(=O)n(C3CC3)cc12` [Example 42, (R)-3-(1-((6-cyclopropyl-1-(3,3-difluoropyrrolidin-1-yl)-7-oxo-6,7-dihydropyrido[3,4-d]pyridazin-4-yl)amino)ethyl)-2-methylbenzonitrile], inhibition was half-maximal at 51.3 nM (IC50).

Turning to `Cc1c(C#N)cccc1[C@@H](C)Nc1nnc(N2CCC(F)(F)CC2)c2cc(=O)n(C3CC3)cc12` [Example 43, (R)-3-(1-((6-cyclopropyl-1-(4,4-difluoropiperidin-1-yl)-7-oxo-6,7-dihydropyrido[3,4-d]pyridazin-4-yl)amino)ethyl)-2-methylbenzonitrile], the IC50 was determined as 84.2 nM.

In turn, `Cc1c(C#N)cccc1[C@@H](C)Nc1nnc(N2CCS(=O)(=O)CC2)c2cc(=O)n(C3CC3)cc12` [Example 44, (R)-3-(1-((6-cyclopropyl-1-(1,1-dioxidothiomorpholino)-7-oxo-6,7-dihydropyrido[3,4-d]pyridazin-4-yl)amino)ethyl)-2-methylbenzonitrile] came in with an IC50 of 44.2 nM. As for `Cc1c(C#N)cccc1[C@@H](C)Nc1nnc(N2CCCC2)c2cc(=O)n(C3(C)CC3)cc12` [Example 45, (R)-2-methyl-3-(1-((6-(1-methylcyclopropyl)-7-oxo-1-(pyrrolidin-1-yl)-6,7-dihydropyrido[3,4-d]pyridazin-4-yl)amino)ethyl)benz onitrile], the figure is 6.2 nM.

Regarding `Cc1c(C#N)cccc1[C@@H](C)Nc1nnc(N2CC3CC3C2)c2cc(=O)n(C3(C)CC3)cc12` (stereo partly drawn) [Example 46, 3-((1R)-1-((1-(3-azabicyclo[3.1.0]hexan-3-yl)-6-(1-methylcyclopropyl)-7-oxo-6,7-dihydropyrido[3,4-d]pyridazin-4-yl)amino)ethyl)-2-methylbenzonitrile], the IC50 was determined as 9.3 nM.

Consider `Cc1c(C#N)cccc1[C@@H](C)Nc1nnc(N2CCC(F)(F)CC2)c2cc(=O)n(C3(C)CC3)cc12` [Example 47, (R)-3-(1-((1-(4,4-difluoropiperidin-1-yl)-6-(1-methylcyclopropyl)-7-oxo-6,7-dihydropyrido[3,4-d]pyridazin-4-yl)amino)ethyl)-2-methylbenzonitrile], for which the IC50 amounted to 66.2 nM. For `Cc1c(C#N)cccc1[C@@H](C)Nc1nnc(N2CC(F)(F)C2)c2cc(=O)n(C3(C)CC3)cc12` [Example 48, (R)-3-(1-((1-(3,3-difluoroazetidin-1-yl)-6-(1-methylcyclopropyl)-7-oxo-6,7-dihydropyrido[3,4-d]pyridazin-4-yl)amino)ethyl)-2-methylbenzonitrile], half-maximal inhibition (IC50) was put at 46.5 nM. As for `Cc1c([C@@H](C)Nc2nnc(N(C)C)c3cc(=O)n(C4CC4)cc23)cccc1C(F)(F)F` [Example 51, (R)-6-cyclopropyl-1-(dimethylamino)-4-((1-(2-methyl-3-(trifluoromethyl)phenyl)ethyl)amino)pyr ido[3,4-d]pyridazin-7(6H)-one], the figure is 11.8 nM. `CCN(CC)c1nnc(N[C@H](C)c2cccc(C(F)(F)F)c2C)c2cn(C3CC3)c(=O)cc12` [Example 53, (R)-6-cyclopropyl-1-(diethylamino)-4-((1-(2-methyl-3-(trifluoromethyl)phenyl)ethyl)amino)pyr ido[3,4-d]pyridazin-7(6H)-one]: the IC50 came out at 24.7 nM. For `Cc1c([C@@H](C)Nc2nnc(N3CC(F)(F)C3)c3cc(=O)n(C4CC4)cc23)cccc1C(F)(F)F` [Example 54, (R)-6-cyclopropyl-1-(3,3-difluoroazetidin-1-yl)-4-((1-(2-methyl-3-(trifluoromethyl)phenyl)ethyl)amino)pyr ido[3,4-d]pyridazin-7(6H)-one], the IC50 is 50.3 nM.

`Cc1c([C@@H](C)Nc2nnc(N3CCC(F)(F)C3)c3cc(=O)n(C4CC4)cc23)cccc1C(F)(F)F` [Example 55, (R)-6-cyclopropyl-1-(3,3-difluoropyrrolidin-1-yl)-4-((1-(2-methyl-3-(trifluoromethyl)phenyl)ethyl)amino)pyr ido[3,4-d]pyridazin-7(6H)-one] yielded a half-maximal inhibitory concentration (IC50) of 49.2 nM.

`Cc1c([C@@H](C)Nc2nnc(N3CC4CC4C3)c3cc(=O)n(C4CC4)cc23)cccc1C(F)(F)F` (stereo partly drawn) [Example 56, 1-(3-azabicyclo[3.1.0]hexan-3-yl)-6-cyclopropyl-4-(((R)-1-(2-methyl-3-(trifluoromethyl)phenyl)ethyl)amino)pyr ido[3,4-d]pyridazin-7(6H)-one] returned an IC50 of 10.6 nM. Regarding `Cc1c([C@@H](C)Nc2nnc(N3CCSC3)c3cc(=O)n(C4CC4)cc23)cccc1C(F)(F)F` [Example 57, (R)-6-cyclopropyl-4-((1-(2-methyl-3-(trifluoromethyl)phenyl)ethyl)amino)-1-(thiazolidin-3-yl)pyrido[3,4-d]pyridazin-7(6H)-one], the IC50 turned out to be 25.6 nM.

For the origin of these results see patent EP4722213A1, “NITROGEN-CONTAINING FUNCTIONAL GROUP-SUBSTITUTED PYRIDAZINOPYRIDONE DERIVATIVE AND USE THEREOF” (Sichuan Huiyu Pharmaceutical Co., Ltd., priority 2023, dated 2024).
